Numbering of substitutions follows the chain as printed. Counter-ions that a name gives are not always drawn. Like-named read-outs stand apart in the source and are kept apart here.
How the values were obtained:
Cathepsin G = molecular target: T1, Cathepsin G (Homo sapiens, UniProt P08311); experiment: Measurement of cathepsin G inhibitory activity (Suc-Ala-Ala-Pro-Phe-pNA); assay type: biochemical; conditions: cathepsin G from human purulent sputum; 60 minutes at 37° C.
T1 construct: the product of Elastin Products Company, Inc. derived from human purulent sputum was used; purchased Elastin Products Company, Inc; host or cells: human purulent sputum
T1 sequence (P08311 21-244): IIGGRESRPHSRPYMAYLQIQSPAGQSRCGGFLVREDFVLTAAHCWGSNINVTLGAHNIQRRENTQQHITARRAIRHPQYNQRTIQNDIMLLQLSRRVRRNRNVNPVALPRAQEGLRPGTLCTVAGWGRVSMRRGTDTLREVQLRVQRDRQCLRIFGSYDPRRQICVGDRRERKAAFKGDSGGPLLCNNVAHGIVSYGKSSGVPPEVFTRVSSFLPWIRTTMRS
Method: (§1) Measurement of Cathepsin G Inhibitory Activity and Chymotrypsin Inhibitory Activity
(§2) Each activity of cathepsin G or chymotrypsin was measured by determining the amount of free p-nitroaniline quantitatively using a synthetic substrate that is colorless and yields colored product upon hydrolysis, by means of a spectrophotometer. Chymotrypsin Type I-S derived from bovine pancreas was purchased from SIGMA. As cathepsin G, the product of Elastin Products Company, Inc. derived from human purulent sputum was used. Suc-Ala-Ala-Pro-Phe-pNA (manufactured by SIGMA) was used as the synthetic substrate. An inhibitory effect of a compound on each enzyme was determined by the following method.
(§3) Each test compound (5 μmol) was weighed in a test tube and dissolved into 2 mL of DMSO. […] Then, 200 μL of 1 mmol/L substrate solution was added to initiate en enzymatic reaction under a temperature of 37° C.
(§4) Based on each inhibitory ratio, IC50 value was calculated.

Simian chymase = molecular target: T2, Simian chymase (Macaca mulatta, UniProt F6SAJ2); experiment: Measurement of inhibitory activity of simian chymase (Ang I substrate, His-Leu/OPT fluorescence); assay type: biochemical, rhesus monkey; conditions: chymase from heart of rhesus monkey; 120 minutes at 37° C.; read-out: Simian chymase IC50 value
T2 sequence (F6SAJ2 22-247 limits assumed): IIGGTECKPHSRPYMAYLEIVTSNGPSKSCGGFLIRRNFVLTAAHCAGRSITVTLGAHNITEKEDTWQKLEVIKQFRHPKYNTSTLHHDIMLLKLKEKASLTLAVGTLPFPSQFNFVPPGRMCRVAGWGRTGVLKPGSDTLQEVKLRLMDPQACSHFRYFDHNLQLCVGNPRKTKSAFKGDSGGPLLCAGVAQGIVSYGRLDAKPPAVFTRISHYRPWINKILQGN
Method: (§5) That is, the activity was measured by reacting free His-Leu formed together with Ang II with o-phthalaldehyde (hereinafter, abbreviated as OPT) to prepare a fluorescent derivative and determining the amount quantitatively by means of a fluorophotometer.
(§6) First, 3.6 μmol of each test compound was weighed in a test tube and was dissolved into 3 mL of DMSO. The DMSO solution was diluted 1000-fold with 20 mmol/L Tris-hydrochloric acid buffer solution (pH 8.0) containing 0.01% Triton X-100 and 0.5 mol/L potassium chloride to prepare 1.2×10^−6 mol/L solution, which was successively diluted with the buffer solution to prepare test sample solutions having concentrations of 1.2×10^−6 mol/L to 1.2×10^−9 mol/L. To 500 μL of the test sample solution of each concentration or buffer solution was added 50 μL of an enzyme solution, followed by 10 minutes of pre-incubation at 37° C. Then, 50 μL of 0.1 mmol/L Ang I solution was added to initiate a reaction. Human angiotensin I (manufactured by SIGMA) was employed as Ang I. The enzyme solution to be used for the reaction was adjusted so as to hydrolyze about 60% of substrate under the conditions, and the reaction wherein a buffer solution containing no enzyme was carried out as a blind test. […] Thereafter, the reaction mixture was centrifuged at 4° C. at 3,000 rpm for 10 minutes and 2 mL of 2 mol/L sodium hydroxide and 1 mL of methanol were added to 1 mL of the resulting supernatant. […] The measurement was repeated twice for each sample and blind test. The fluorescence intensity obtained by subtracting the average value at blind test from the average value thereof was determined as chymase activity.
(§7) In this regard, an enzymatic reaction using a buffer solution instead of the test sample solution was carried out as a control, and inhibitory ratio of chymase activity was determined as percentage by dividing the difference of subtraction of the activity at the addition of the test compound from the chymase activity at the control by the chymase activity at the control.

Stability in rat plasma = assay type: in vitro ADME; conditions: 10 μg/mL, 37° C., 60 minutes, HPLC
Method: Stability of the compounds of the invention in rat plasma was investigated.
Male SD rats (7-week-old) were anesthetized with ether under over-night fasting conditions and, after an abdominal part was incised, blood was collected from aorta abdominalis using a heparinized disposable plastic syringe. The blood was centrifuged under cooling to collect a supernatant plasma. The collected plasma was stored under freezing at −30° C. and was melted before use. After a test compound was dissolved in DMSO, the solution was added to 200 μL of the plasma so as to be 10 μg/mL, followed by incubation at 37° C. After 60 minutes, the mixture was acidified by adding 200 μL of 0.1 mol/L hydrochloric acid, and then extracted twice with 2 mL of ethyl acetate. The resulting organic layer was evaporated to dryness under a nitrogen gas flow and the residue was dissolved into 200 μL of acetonitrile to prepare a sample solution. On the other hand, the test compound was dissolved into 1% acetonitrile solution of DMSO so as to be 10 μg/mL as a control solution. The sample solution and control solution was investigated by high performance liquid chromatography (hereinafter, abbreviated as HPLC). Residual ratio (%) was determined as percentage by dividing the peak area of the sample solution by the peak area of the control solution.
Column: Waters Nova Pack C18 (inner diameter: 3.9 mm, length: 150 mm)
Mobile phase A: acetonitrile/water=10/90
Mobile phase B: acetonitrile/methanol=50/50
Eluent: Mobile phase A-mobile phase B (100/0 to 0/100, linear gradient, 50 minutes)
Amount of injection: 50 μL

Chymotrypsin = molecular target: T3, Chymotrypsin (Bos taurus, UniProt P00766); experiment: Measurement of chymotrypsin inhibitory activity (Suc-Ala-Ala-Pro-Phe-pNA); assay type: biochemical; conditions: Chymotrypsin Type I-S from bovine pancreas; 30 minutes at 37° C.
T3 construct: Chymotrypsin Type I-S derived from bovine pancreas; purchased SIGMA Type I-S; host or cells: bovine pancreas
Method: as §1, §2, §3, §4

Human chymase = molecular target: T4, Human chymase (Homo sapiens, UniProt P23946); experiment: Measurement of inhibitory activity of human chymase (Ang I substrate, His-Leu/OPT fluorescence)
T4 sequence (P23946 22-247): T2 sequence (F6SAJ2 22-247 limits assumed) with S29F, K63E, Y159D, L201S, K221Q, G225A
Method: as §5, §6, §7

[1] = read-out: Human cymase IC50 value, human chymase from silkworms infected with baculovirus, 120 minutes at 37° C.

SMILES	IC50 (Cathepsin G) [µM]	IC50 (Simian chymase) [µM]	IC50 (Chymotrypsin) [µM]	IC50 (Human chymase) [µM]	also measured
Cc1c(S(=O)(=O)Nc2ccc(C(=O)NCC(=O)O)cc2S(C)(=O)=O)sc2ccc(Cl)cc12 (as salt: sodium) [Compound 52]	–	–	–	–	melting point: 290 to 292 °C
CC(C)C[C@H](NC(=O)[C@@H](NC(=O)N[C@@H](Cc1ccccc1)C(=O)O)[C@@H]1CCN=C(N)N1)C(=O)N[C@H](C=O)Cc1ccccc1 [Chymostatin, reference compound]	0.00599	–	–	–	–
COC(=O)c1ccc(NS(=O)(=O)c2sc3ccc(Cl)cc3c2C)c(S(C)(=O)=O)c1 [Compound 1, Methyl 4-(5-chloro-3-methylbenzo[b]thiophene-2-sulfonylamino)-3-methanesulfonylbenzoate]	> 10	0.05	> 10	–	Residual ratio in rat plasma (Stability in rat plasma): 93.9%; IC50 (Human chymase; [1]): 0.203 µM
CCOC(=O)c1ccc(NS(=O)(=O)c2sc3ccc(Cl)cc3c2C)c(S(C)(=O)=O)c1 [Compound 2, Ethyl 4-(5-chloro-3-methylbenzo[b]thiophene-2-sulfonylamino)-3-methanesulfonylbenzoate]	–	0.042	–	–	–
Cc1c(S(=O)(=O)Nc2ccc(C(=O)OC(C)(C)C)cc2S(C)(=O)=O)sc2ccc(Cl)cc12 [Compound 3, tert-butyl 4-(5-chloro-3-methylbenzo[b]thiophene-2-sulfonylamino)-3-methanesulfonylbenzoate]	–	0.178	–	–	–
CCS(=O)(=O)c1cc(C(=O)OC)ccc1NS(=O)(=O)c1sc2ccc(Cl)cc2c1C [Compound 4, Methyl 4-(5-chloro-3-methylbenzo[b]thiophene-2-sulfonylamino)-3-ethanesulfonylbenzoate]	> 10	0.111	> 10	–	Residual ratio in rat plasma (Stability in rat plasma): 93.5%
COC(=O)c1cc(S(C)(=O)=O)c(NS(=O)(=O)c2sc3ccc(Cl)cc3c2C)cc1C [Compound 5, Methyl 4-(5-chloro-3-methylbenzo[b]thiophene-2-sulfonylamino)-5-methanesulfonyl-2-methylbenzoate]	> 1	0.15	> 1	–	Residual ratio in rat plasma (Stability in rat plasma): 85.2%
COC(=O)c1ccc(NS(=O)(=O)c2sc3ccc(Cl)cc3c2C)c([N+](=O)[O-])c1 [Compound 8, Methyl 4-(5-chloro-3-methylbenzo[b]thiophene-2-sulfonylamino)-3-nitrobenzoate]	> 10	–	> 10	–	–
CC(=O)c1ccc(NS(=O)(=O)c2sc3ccc(Cl)cc3c2C)c(S(C)(=O)=O)c1 [Compound 11, N-(4-acetyl-2-methanesulfonylphenyl)-5-chloro-3-methylbenzo[b]thiophene-2-sulfonamide]	–	0.1	–	0.271	–
Cc1c(S(=O)(=O)Nc2ccc(CO)cc2S(C)(=O)=O)sc2ccc(Cl)cc12 [Compound 13, 5-chloro-N-(4-hydroxymethyl-2-methanesulfonylphenyl)-3-methylbenzo[b]thiophene-2-sulfonamide]	–	0.271	–	–	–
CCOC(=O)c1ccc(NS(=O)(=O)c2sc3ccc(Cl)cc3c2C)cc1 [Compound 14, ethyl 4-(5-chloro-3-methylbenzo[b]thiophene-2-sulfonylamino)benzoate]	> 10	0.278	> 10	–	Residual ratio in rat plasma (Stability in rat plasma): 79.2%
CC(=O)c1ccc(NS(=O)(=O)c2sc3ccc(F)cc3c2C)c(S(C)(=O)=O)c1 [Compound 19, N-(4-acetyl-2-methanesulfonylphenyl)-5-fluoro-3-methylbenzo[b]thiophene-2-sulfonamide]	–	0.02	–	–	Residual ratio in rat plasma (Stability in rat plasma): 96.2%; IC50 (Human chymase; [1]): 0.082 µM
COC(=O)c1ccc(NS(=O)(=O)c2sc3ccccc3c2C)c(S(C)(=O)=O)c1 [Compound 20, methyl 4-(3-methylbenzo[b]thiophene-2-sulfonylamino)-3-methanesulfonylbenzoate]	–	0.039	–	–	IC50 (Human chymase; [1]): 0.305 µM
COC(=O)c1coc(-c2ccc(NS(=O)(=O)c3sc4ccc(Cl)cc4c3C)c(S(C)(=O)=O)c2)n1 [Compound 25, methyl 2-[4-(5-chloro-3-methylbenzo[b]thiophene-2-sulfonylamino)-3-methanesulfonylphenyl]oxazole-4-carboxylate]	–	0.075	–	–	melting point: 296 to 298 °C

More lines, main results first:

IC50 (Cathepsin G) [µM]	IC50 (Simian chymase) [µM]	IC50 (Chymotrypsin) [µM]	IC50 (Human chymase) [µM]	SMILES	also measured
> 10	0.01	> 10	0.15	Cc1c(S(=O)(=O)Nc2ccc(-c3nc(C(=O)O)co3)cc2S(C)(=O)=O)sc2ccc(Cl)cc12 [Compound 26, 2-[4-(5-chloro-3-methylbenzo[b]thiophene-2-sulfonylamino)-3-methanesulfonylphenyl]oxazole-4-carboxylic acid]	Residual ratio in rat plasma (Stability in rat plasma): 100%
> 10	0.006	> 10	0.045	Cc1c(S(=O)(=O)Nc2ccc(-c3cnco3)cc2S(C)(=O)=O)sc2ccc(F)cc12 [Compound 48]	melting point: 199 to 201 °C
–	0.157	–	–	Cc1c(S(=O)(=O)Nc2ccc(C(=O)NCC(=O)O)cc2S(C)(=O)=O)sc2ccc(Cl)cc12 [Compound 52]	–
–	–	–	0.102	COc1oc(-c2ccc(NS(=O)(=O)c3sc4ccc(F)cc4c3C)c(S(C)(=O)=O)c2)nc1C [Compound 56, 5-fluoro-N-[2-methanesulfonyl-4-(5-methoxy-4-methyloxazol-2-yl)phenyl]-3-methylbenzo[b]thiophene-2-sulfonamide]	–
–	–	–	0.02	Cc1c(S(=O)(=O)Nc2ccc(-c3nc(CO)cs3)cc2S(C)(=O)=O)sc2ccc(F)cc12 [Compound 63, 5-fluoro-N-[4-(4-hydroxymethylthiazol-2-yl)-2-methanesulfonylphenyl]-3-methylbenzo[b]thiophene-2-sulfonamide]	–
–	–	–	0.039	Cc1c(S(=O)(=O)Nc2ccc(-c3nc(CO)co3)cc2S(C)(=O)=O)sc2ccc(F)cc12 [Compound 66]	melting point: 242 to 244 °C
–	–	–	0.101	Cc1coc(-c2ccc(NS(=O)(=O)c3sc4ccc(F)cc4c3C)c(S(C)(=O)=O)c2)n1 [Compound 68]	melting point: 206 to 208 °C
–	–	–	0.02	CS/C(=C\c1ccc(NS(=O)(=O)c2sc3ccc(F)cc3c2C)c(S(C)(=O)=O)c1)[S+](C)[O-] (stereo not shown) [Compound 72, 5-fluoro-N-[2-methanesulfonyl-4-((E)-2-methanesulfinyl-2-methylsulfanylvinyl)phenyl]-3-methylbenzo[b]thiophene-2-sulfonamide]	–
–	–	–	0.055	Cc1c(S(=O)(=O)Nc2ccc(-c3ncco3)cc2S(C)(=O)=O)sc2ccc(F)cc12 [Compound 73, 5-fluoro-N-[2-methanesulfonyl-4-(oxazol-2-yl)phenyl]-3-methylbenzo[b]thiophene-2-sulfonamide]	–
